Where a name gives a salt, the structure may show the parent alone.
Target: JNK1 (Homo sapiens (Human), UniProt P45983)
Assay: In Vitro JNK1 Assay (TR-FRET, phosphorylation of GST-c-Jun)
Format: biochemical
Conditions: 0.2 nM active JNK1 kinase, 26.7 nM GST-c-Jun, 2 μM ATP, 30 min at room temperature
Method: Phosphorylation of GST-c-Jun protein (amino acid residues 1-79) was measured as JNK1 activity. […] The reaction buffer contained 50 mM HEPES, pH […], 1 mM DTT, 0.1 mM Na3VO4 and 0.2 mg/mL BSA. After 30 min. incubation at room temperature, the reaction was terminated by adding buffer containing 8 mM EDTA and a polyclonal anti-phospho-c-Jun antibody (Cell Signaling #9261L), followed by an additional incubation of 30 min. at room temperature. […] Time-resolved Fluorescence Resonance Energy Transfer (TR-FRET) signals were measured 1 hr. later on the EnVision reader (Perkin Elmer). Compound potency was assessed at 10 serially diluted concentrations. Percentage of inhibition at each concentration was determined to generate an IC50 value for each compound.

Sequence of JNK1 (P45983 whole entry): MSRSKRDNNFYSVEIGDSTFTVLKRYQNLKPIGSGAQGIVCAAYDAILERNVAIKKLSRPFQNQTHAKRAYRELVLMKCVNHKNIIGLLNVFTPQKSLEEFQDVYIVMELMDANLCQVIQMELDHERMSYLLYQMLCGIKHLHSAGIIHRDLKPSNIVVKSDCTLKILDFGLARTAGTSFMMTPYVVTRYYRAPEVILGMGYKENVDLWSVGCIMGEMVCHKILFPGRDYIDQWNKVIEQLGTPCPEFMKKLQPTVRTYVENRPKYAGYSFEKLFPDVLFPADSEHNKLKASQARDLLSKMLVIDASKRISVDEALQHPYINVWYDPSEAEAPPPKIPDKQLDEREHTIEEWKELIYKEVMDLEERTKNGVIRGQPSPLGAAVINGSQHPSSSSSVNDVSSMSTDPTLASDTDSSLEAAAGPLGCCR

Compound | IC50
O=C(NCc1cn(-c2ccccc2)c2cc(Cl)ccc2c1=O)c1cc(F)ccc1F [Example I-60, N-(7-Chloro-4-oxo-1-phenyl-1,4-dihydro-quinolin-3-ylmethyl)-2,5-difluoro-benzamide] | 1900 nM
O=C(NCc1cn(-c2ccccc2)c2cc(Cl)ccc2c1=O)c1cnc(N2CCOCC2)nc1 [Example I-56, 2-Morpholin-4-yl-pyrimidine-5-carboxylic acid (7-chloro-4-oxo-1-phenyl-1,4-dihydro-quinolin-3-ylmethyl)-amide] | 190 nM
1-(4-Chloro-3-fluoro-phenyl)-3-(7-chloro-4-oxo-1-phenyl-1,4-dihydro-quinolin-3-yl-methyl)-urea [Example I-204] | 1100 nM
CN(C)C(=O)c1c(CNC(=O)c2ccc(-c3cnco3)cc2)c(=O)c2ccc(Cl)cc2n1-c1ccccc1 [Example I-18, 7-Chloro-3-[(4-oxazol-5-yl-benzoylamino)-methyl]-4-oxo-1-phenyl-1,4-dihydro-quinoline-2-carboxylic acid dimethylamide] | 150 nM
O=C(NCc1cn(-c2ccccc2)c2cc(Cl)ccc2c1=O)c1cc(F)cc(F)c1 [Example I-58, N-(7-Chloro-4-oxo-1-phenyl-1,4-dihydro-quinolin-3-ylmethyl)-3,5-difluoro-benzamide] | 630 nM
O=C(NCc1cn(-c2ccccc2)c2cc(Cl)ccc2c1=O)c1ccc(Cl)nc1 [Example I-61, 6-Chloro-N-(7-chloro-4-oxo-1-phenyl-1,4-dihydro-quinolin-3-ylmethyl)-nicotinamide] | 430 nM
Cn1cc(C(=O)NCc2cn(-c3ccccc3)c3cc(Cl)ccc3c2=O)nn1 [Example I-53, 1-Methyl-1H-[1,2,3]triazole-4-carboxylic acid (7-chloro-4-oxo-1-phenyl-1,4-dihydro-quinolin-3-ylmethyl)-amide] | 560 nM
O=C(NCc1cn(-c2ccccc2)c2cc(Cl)ccc2c1=O)c1cnc2nc[nH]c2c1 [Example I-49, 1H-Imidazo[4,5-b]pyridine-6-carboxylic acid (7-chloro-4-oxo-1-phenyl-1,4-dihydro-quinolin-3-ylmethyl)-amide] | 230 nM
Cn1ccc(C(=O)NCc2cn(-c3ccccc3)c3cc(Cl)ccc3c2=O)cc1=O [Example I-54, 1-Methyl-2-oxo-1,2-dihydro-pyridine-4-carboxylic acid (7-chloro-4-oxo-1-phenyl-1,4-dihydro-quinolin-3-ylmethyl)-amide] | 670 nM
O=C(NCc1cn(-c2ccccc2)c2cc(Cl)ccc2c1=O)c1ccn(Cc2cccc(Cl)c2)c(=O)c1 [Example I-44, 1-(3-Chloro-benzyl)-2-oxo-1,2-dihydro-pyridine-4-carboxylic acid (7-chloro-4-oxo-1-phenyl-1,4-dihydro-quinolin-3-ylmethyl)-amide] | 110 nM

The next lines start with the values.

IC50 | Compound
150 nM | COC(=O)c1c(CNC(=O)N2CCOCC2)c(=O)c2ccc(Cl)cc2n1-c1ccccc1 [Example I-209, 7-Chloro-3-{[(morpholine-4-carbonyl)-amino]-methyl}-4-oxo-1-phenyl-1,4-dihydro-quinoline-2-carboxylic acid methyl ester]
110 nM | NC(=O)C1CCN(c2ccc(C(=O)NCc3cn(-c4ccccc4)c4cc(Cl)ccc4c3=O)cn2)CC1 [Example I-86, 3,4,5,6-Tetrahydro-2H-[1,2′]bipyridinyl-4,5′-dicarboxylic acid 4-amide-5′-[(7-chloro-4-oxo-1-phenyl-1,4-dihydro-quinolin-3-ylmethyl)-amide]]
200 nM | COC(=O)c1c(CNC(=O)C(C)C)c(=O)c2ccc(Cl)cc2n1-c1ccccc1 [Example I-147, 7-Chloro-3-(isobutyrylamino-methyl)-4-oxo-1-phenyl-1,4-dihydro-quinoline-2-carboxylic acid methyl ester]
120 nM | O=C(NCc1cn(-c2ccccc2)c2cc(Cl)ccc2c1=O)N1CCN(c2ccccc2)CC1 [Example I-180, 4-Phenyl-piperazine-1-carboxylic acid (7-chloro-4-oxo-1-phenyl-1,4-dihydro-quinolin-3-ylmethyl)-amide]
1100 nM | O=C(NCc1cn(-c2ccccc2)c2cc(Cl)ccc2c1=O)NC1CCN(S(=O)(=O)c2ccccc2)CC1 [Example I-196, 1-(7-Chloro-4-oxo-1-phenyl-1,4-dihydro-quinolin-3-ylmethyl)-3-(1-phenylsulfonyl-piperidin-4-yl)-urea]
1400 nM | CN1CCN(C(=O)NCc2cn(-c3ccccc3)c3cc(Cl)ccc3c2=O)CC1 [Example I-187, 4-Methyl-piperazine-1-carboxylic acid (7-chloro-4-oxo-1-phenyl-1,4-dihydro-quinolin-3-ylmethyl)-amide]
120 nM | O=C(NCc1cn(-c2ccccc2)c2cc(Cl)ccc2c1=O)c1ccc(N2CC[C@H](O)C2)nc1 [Example I-87, N-(7-Chloro-4-oxo-1-phenyl-1,4-dihydro-quinolin-3-ylmethyl)-6-((S)-3-hydroxy-pyrrolidin-1-yl)-nicotinamide]
2700 nM | N#C/N=C(/NCc1cn(-c2ccccc2)c2cc(Cl)ccc2c1=O)Nc1ccccc1 [Example I-178, [(7-Chloro-4-oxo-1-phenyl-1,4-dihydro-quinolin-3-ylmethyl)-amino]-phenylamino-methylene-cyanamide]
2100 nM | CS(=O)(=O)N1CCC(NC(=O)NCc2cn(-c3ccccc3)c3cc(Cl)ccc3c2=O)CC1 [Example I-197, 1-(7-Chloro-4-oxo-1-phenyl-1,4-dihydro-quinolin-3-ylmethyl)-3-(1-methanesulfonyl-piperidin-4-yl)-urea]
2100 nM | O=C(NCc1cn(-c2ccccc2)c2cc(Cl)ccc2c1=O)N1CCC(c2ccccc2)CC1 [Example I-190, 4-Phenyl-piperidine-1-carboxylic acid (7-chloro-4-oxo-1-phenyl-1,4-dihydro-quinolin-3-ylmethyl)-amide]
1600 nM | CS(=O)(=O)C1CCN(C(=O)N2CCC(NC(=O)NCc3cn(-c4ccccc4)c4cc(Cl)ccc4c3=O)CC2)CC1 [Example I-199, 1-(7-Chloro-4-oxo-1-phenyl-1,4-dihydro-quinolin-3-ylmethyl)-3-[1-(4-methanesulfonyl-piperidine-1-carbonyl)-piperidin-4-yl]-urea]
1800 nM | O=C(NCc1cn(-c2ccccc2)c2cc(Cl)ccc2c1=O)Nc1ccc(OC(F)(F)F)cc1 [Example I-205, 1-(4-trifluoromethoxy-phenyl)-3-(7-chloro-4-oxo-1-phenyl-1,4-dihydro-quinolin-3-yl-methyl)-urea]
60 nM | CC(C)(C)OC(=O)N1CCC(NC(=O)NCc2cn(-c3ccccc3)c3cc(Cl)ccc3c2=O)CC1 [Example I-192, 4-[3-(7-Chloro-4-oxo-1-phenyl-1,4-dihydro-quinolin-3-ylmethyl)-ureido]-piperidine-1-carboxylic acid tert-butyl ester]
350 nM | O=c1c(CNc2ccnc(N3CCCCC3)n2)cn(-c2ccccc2)c2cc(Cl)ccc12 [Example I-174, 7-Chloro-1-phenyl-3-[(2-piperidin-1-yl-pyrimidin-4-ylamino)-methyl]-1H-quinolin-4-one trifluoroacetate salt]
550 nM | O=C(NCc1cn(-c2ccccc2)c2cc(Cl)ccc2c1=O)Nc1ccccc1 [Example I-201, 1-(7-Chloro-4-oxo-1-phenyl-1,4-dihydro-quinolin-3-ylmethyl)-3-phenyl-urea]

Source: patent US8501732B2, “Aminomethyl quinolone compounds” (Hoffmann-La Roche Inc., priority 2011, dated 2013)
